Test results from patent US8481500B2, “Compounds having neuroprotective properties” (Universidad del Pais Vasco, priority 2005, dated 2013).
Entries after “also recorded” stand apart in the source; their conditions may differ.

Key:
[1] = system: neuron cultures from the brain cortex; assay: Excitotoxic neuronal death in neuron cultures (glutamate or NMDA); assay type: cell-based, Sprague Dawley rat; settings: glutamate or NMDA 50 μM for 10 minutes; antioxidant 100 nM, kept 3 hours; p<0.001 vs agonist only
Procedure: The neuron cultures were obtained from the brain cortex of Sprague Dawley rat embryos of 18 days of gestation (Larm et al., 1996, Eur J Pharmacol 314: 249-54; Cheung et al., 1998, Neuropharmacol 37: 1419-29). The cells were nourished Neurobasal medium supplemented with B27 supplement (Invitrogen).
The glutamate or NMDA (N-methyl-D-aspartate) agonists were applied, both at a concentration of 50 μM, for 10 minutes. The antioxidants, morin and mangiferin, were added during the exposure of the agonist at a concentration of 100 nM and were maintained in the medium for 3 hours until cell viability was measured by means of fluorescein diacetate. […] The values are shown as the mean±S.E.M. of the quadruplicates from 3-4 different experiments.

[2] = system: transient cerebral ischemia; assay: NeuN+ cell count in the pyramidal layer of CA1 hippocampus after transient cerebral ischemia; assay type: in vivo, Sprague-Dawley rats; settings: 7 and 70 days after ischemia; compared with placebo; i.p. 10 mg/kg, then 5 mg/kg every 12 hours for 7 days
Procedure: (§1) Four experimental groups of Sprague-Dawley rats (each group contained 20 animals) were randomly selected: control (C), ischemic (ISCH), ischemic animals treated with mangiferin (I+MNG), and ischemic animals treated with morin (I+MOR). Transient cerebral ischemia was induced by means of occlusion of the vertebral and common carotid arteries for 10 minutes. The criteria for determining cerebral ischemia were the bilateral loss of stretch reflex, limb stiffness and mydriasis. The rectal and body temperature was maintained at 37° C. during surgery and the ischemia. […] The group of control animals was treated similarly to the group with ischemia, but none of their common carotid arteries was occluded.
Mangiferin and morin were administered intraperitoneally at a concentration of 10 mg/kg of body weight, 30 minutes after the ischemic stimulus and then at a concentration of 5 mg/kg every 12 hours for 7 days. […]
The number of positive NeuN cells was quantified in the pyramidal layer of the CA1 hippocampus in control rats and operated rats, and in animals subjected to transient cerebral ischemia 7 and 70 days after the reperfusion (n=4-5 animals for every experimental group). The amounts were collected both from the left and the right hemisphere of each section analyzed by immunohistochemistry, with two sections for every experiment from at least three independent experiments. […]

[3] = system: superoxide production in the CA1 hippocampus region; assay: Superoxide production in the CA1 hippocampus region after transient cerebral ischemia; assay type: in vivo, Sprague-Dawley rats; settings: 1 day after transient global ischemia; i.p. 10 mg/kg 30 minutes after ischemia, then 5 mg/kg every 12 hours
Procedure: as §1
(§2) Mangiferin and morin were administered intraperitoneally at a concentration of 10 mg/kg of body weight, 30 minutes after the ischemic stimulus and then at a concentration of 5 mg/kg every 12 hours for 7 days.
The method described by Chan et al., 1998 (J Neurosci 18: 8292-99) was followed. […] The fluorescence was examined in cryostat sections (10 μm) and was analyzed with a fluorescence microscope (Zeiss Axiophot). The images were taken with a digital camera (Axio Vision, Zeiss) and analyzed with the Image Pro Plus program.

oligodendrocyte cultures = assay: Oligodendrocyte culture death caused by AMPA; assay type: cell-based; settings: AMPA 10 μM for 5 minutes; polyphenol 10-100000 nM added 24 hours before; read 24 hours later
Procedure: The oligodendrocyte cultures were in turn incubated with AMPA [(RS)-α-amino-3-hydroxy-5-methyl-4-isoxazolepropionic hydrobromic acid] agonists, at a 10 μM concentration for 5 minutes. The polyphenols, mangiferin and morin, were added 24 hours before the exposure of the agonist and until the end of the experiments at concentrations comprised between 10 and 100000 nM, and cell viability was measured by means of calcein fluorimetry 24 hours later. The values shown in FIG. 1B show the percentage of normalized cell death±S.E.M. of the triplicates according to the logarithm of the concentration from three different experiments. *: p<0.05; **: p<0.01.

[4] = system: transient cerebral ischemia; assay: Classically conditioned eyelid responses after global ischemia; assay type: in vivo, Sprague-Dawley rats; settings: rats subjected to global ischemia; 10 conditioning sessions
Procedure: as §1, §2
The study of the eyelid responses by means of classic conditioning was carried out in 10 Sprague-Dawley rats per experimental group. Each animal was anesthetized with ketamine (100 mg/kg) and xylazine (20 mg/kg). […]
A quantitative analysis of the classically conditioned eyelid responses from […] (C, dotted line) and mice with ischemia (ISCH, circles), and from mice with ischemia treated with mangiferin (I+MNG, squares) or morin (I+MOR, triangles), is shown in FIG. 4. […]

| Molecule | excitotoxic neuronal death (cell viability by fluorescein diacetate) [1] | number of NeuN+ cells in the pyramidal layer of the CA1 hippocampus [2] | fluorescence levels emitted by oxidized hydroethidine in neurons of the pyramidal layer of the CA1 region [3] | oligodendroglial death induced by excitotoxic stimuli (cell viability by calcein fluorimetry) (oligodendrocyte cultures) | learning capacity (conditioned eyelid responses) [4] |
| --- | --- | --- | --- | --- | --- |
| O=c1c2cc(O)c(O)cc2oc2cc(O)c([C@@H]3O[C@H](CO)[C@@H](O)[C@H](O)[C@H]3O)c(O)c12 [mangiferin] | significantly attenuates excitotoxic neuronal death | larger; also recorded: significant increase of positive NeuN^+ cells | reduction | protect from neuronal and oligodendroglial death | conserve the learning capacity |
| morin | significantly attenuates excitotoxic neuronal death | larger; also recorded: significant increase of positive NeuN^+ cells | reduction | protect from neuronal and oligodendroglial death | conserve the learning capacity |
